Read-outs that look alike come from different tables or passages of the source.
Columns and labels:
Assay type in all cases: physicochemical
[1] = acid dissociation of the indicator in its electronic ground state (pKa); settings: for pKa acidic form (AH) in ground state: indicator acid AH; for pKa acidic form (BH^+) in ground state: indicator base, conjugate acid BH^+
Description: Ka acid constant (dissociation equilibrium
pK value of an acid or conjugate acid
The pKa value of the electronically non-excited acid (AH or BH^+) is in the relevant measuring range.

[2] = excitation/emission maxima of the acidic and basic forms of the indicator; settings: for emission maximum acidic form / excitation maximum acidic form: AH; for emission maximum conjugate basic form / excitation maximum conjugate basic form: A^-; for emission maximum basic form / excitation maximum basic form: B; for emission maximum conjugate acidic form / excitation maximum conjugate acidic form: BH^+
Method: (§1) In an embodiment of the invention referring to item 1, the indicator is immobilized on a solid substrate, for example, and is brought into contact with the sample. […] After separation of the exciting light by means of a cut-off filter, fluorescence is detected over a broad band of the spectrum (for instance, by means of a photomultiplier or a pin photodiode) and decay time is measured electronically. As dissociation takes place in the ground state, both the absorption spectrum and the fluorescence spectrum are modified, which will have no negative effect on the measurement, however, due to the broad-band character of excitation and detection, or rather, due to the choice of the excitation wavelength in the overlap region of the absorption spectra and the broad detection band. Via a stored calibrating function the recorded decay times may be converted into pH values by a computer.
(§2) In an embodiment of the invention referring to item 2, a suitable indicator is immobilized on a solid substrate, and is dipped into the sample. Excitation takes place monochromatically with the use of a short-time light source (e.g., a coaxial flashlamp) and a color filter tuned to the absorption wavelength of the indicator (e.g., an interference filter). After separation of the exciting light by means of a cut-off filter, emission is detected over a broad band of the spectrum (for instance, by means of a photomultiplier or a pin photodiode). The pH value again is determined from the measured decay time via a stored calibrating function.

[3] = pH measuring range of the indicator via luminescence decay time
Method: as §1, §2

[4] = luminescence decay time of the acidic and basic forms of the indicator in the excited state; settings: for luminescence decay time excited state .tau.(AH*): excited acid AH*; for luminescence decay time excited state .tau.(A-*): excited conjugate base A^-*; for luminescence decay time excited state .tau.(B*): excited base B*; for luminescence decay time excited state .tau.(BH+*): excited conjugate acid BH^+*
Method: .tau. lifetime of the excited state (luminescence
as §1, §2

[5] = acid dissociation of the indicator in its electronically excited state (pKa *); settings: for pKa * value in the excited state exceeds the pKa value in the ground state by: increase
Description: S and .tau.B of the acidic forms (AH*, BH^+*) and basic forms (S^-*, B*) of the indicator differ from each other. In both fundamental instances the measured luminescence decay time .tau. is a function of the luminescence decay times .tau.B and .tau.S, their weighting depending on the pH prevailing in the sample.
The pKa * value of the electronically excited acid (AH* or BH^+*) is in the relevant measuring range.

[6] = excited vs ground state, decrease

| pKa acidic form (AH) in ground state [1] | emission maximum acidic form [2] [nm] | excitation maximum acidic form [2] [nm] | emission maximum conjugate basic form [2] [nm] | excitation maximum conjugate basic form [2] [nm] | luminescence decay time excited state .tau.(AH*) [4] [ns] | luminescence decay time excited state .tau.(A-*) [4] [ns] | pKa * value in the excited state is lower than the pKa value in the ground state by [5] | Compound | measuring range [3] | pKa acidic form (BH^+) in ground state [1] | emission maximum basic form [2] [nm] | excitation maximum basic form [2] [nm] | emission maximum conjugate acidic form [2] [nm] | excitation maximum conjugate acidic form [2] [nm] | luminescence decay time excited state .tau.(B*) [4] [ns] | luminescence decay time excited state .tau.(BH+*) [4] [ns] | pKa * value in the excited state exceeds the pKa value in the ground state by ([5]; excited vs ground state) [units] | pKa * value in the excited state is lower than the pKa value in the ground state by [5, 6] |
| --- | --- | --- | --- | --- | --- | --- | --- | --- | --- | --- | --- | --- | --- | --- | --- | --- | --- | --- |
| ~3 | 340 | 278 | 340 | 285 | 2.5 | 9.0 | approx. 2 units | O=C(O)Cc1c[nH]c2ccccc12 [3-indolylacetic acid] | 2-4 pH | – | – | – | – | – | – | – | – | – |
| – | – | – | – | – | – | – | – | O=c1c2ccccc2[nH]c2ccccc12 [9(10H)-acridone] | 0.5-2.5 pH | 0.02 | 440 | 383 | 456 | 399 | 26 | 15 | 1.7 | – |
| – | – | – | – | – | – | – | – | c1ccc2nc3ccccc3cc2c1 [Acridine] | 4.0-7.0 pH | 5.45 | 430 | 356 | 475 | 356 | 14 | 33 | 5.25 | – |
| ~9.8 | 356 | 328 | 410 | 348 | 9.0 | 4.8 | – | Oc1ccc2ccccc2c1 [Example 2-naphthol, 2-naphthol] | 1.2-4.3 pH | – | – | – | – | – | – | – | – | 7 units |

| Compound | pKa acidic form (AH) in ground state [1] | emission maximum acidic form [2] [nm] | excitation maximum acidic form [2] [nm] | emission maximum conjugate basic form [2] [nm] | excitation maximum conjugate basic form [2] [nm] | luminescence decay time excited state .tau.(AH*) [4] [ns] | luminescence decay time excited state .tau.(A-*) [4] [ns] | pKa * value in the excited state is lower than the pKa value in the ground state by [5] | measuring range [3] | pKa acidic form (BH^+) in ground state [1] | emission maximum basic form [2] [nm] | excitation maximum basic form [2] [nm] | emission maximum conjugate acidic form [2] [nm] | excitation maximum conjugate acidic form [2] [nm] | luminescence decay time excited state .tau.(B*) [4] [ns] | luminescence decay time excited state .tau.(BH+*) [4] [ns] | pKa * value in the excited state exceeds the pKa value in the ground state by ([5]; excited vs ground state) [units] | pKa * value in the excited state is lower than the pKa value in the ground state by [5, 6] |
| --- | --- | --- | --- | --- | --- | --- | --- | --- | --- | --- | --- | --- | --- | --- | --- | --- | --- | --- |
| O=Cc1ccccc1O [Salicylaldehyde] | ~8.5 | 525 | 327 | 400 | 380 | < 1 | ~3 | – | 7-10 pH | – | – | – | – | – | – | – | – | approx. 6.5 units |

From patent publication US5308581A, “Substance of an optical fluorescence measuring arrangement for measuring the pH of a sample and optical sensor with such an indicator substance” (AVL Medical Instruments AG, priority 1990, dated 1994)
